Structures can show the parent of a compound that is named as a salt.

The first experiment deals with ARN127(65)CFP/YFP. Nature of the experiment: Primary high-throughput AR FRET screen of three libraries. It counts as cell-based, human. As to conditions: compounds at 4 μg/ml, HEK293, ARN127(65)CFP/YFP + GRΔ, 100 nM dex, ~48 hours. As to the method: (§1) Selected candidate compounds and/or libraries of compounds were screened as follows. Daughter plates were created in duplicate from the 384-well microtiter plates that contained the compounds at a concentration of 80 μg/ml. Compounds were aliquoted in 96-well plates (Costar™ 3603) at a concentration at which most of the compounds are active, but are not toxic to the cells (e.g., of 4 μg/ml). To screen a library, HEK293 cells stably expressing RFP were plated in 10 cm plates to obtain ˜80% confluency on the day of transfection. Each plate was transfected with 2 μg of ARN127(65)CFP/YFP each, and 0.7 μg p6RGRΔ using 50 μL Plus Reagent™ and 76 μL Lipofectamine™ according to manufacturer's protocol (Invitrogen). After 3 hours, complete medium was added and the plates were incubated further for 3 hours. […] The cells were then cultured for ˜48 hours to allow aggregate formation. After fixing the cells FRET signal was measured using a SAFIRE Fluorescence Plate Reader (Tecan, Inc.) according to methods described above. Several internal controls were used to standardize each experiment. Mock transfected cells were used to control for background autofluorescence and light scattering by mammalian cells. To control for CFP bleedthrough and crossover excitation of YFP, additional wells contained cells expressing ARN127(25)CFP or ARN127(25)YFP alone. RFP was measured to control for non-specific effects on steady-state protein levels. ARN127(25)CFP/YFP expression served as a reference point for background FRET levels without aggregation (a theoretical maximum effect on aggregation inhibition). FRET measurements for each experiment were thus scaled between 100% (cells with no drug treatment) and 0% (FRET levels from unexpanded protein). Last, each plate also contained wells treated with Y-27632 (50 μM) as a positive control.
as §1, with “Daughter” for “Selected candidate compounds and/or libraries of compounds were screened as follows. Daughter”, “a single concentration, e.g.,” for “a concentration of”, “concentration of 4 μg/ml,” for “concentration”, “the cells.” for “the cells (e.g., of 4 μg/ml).”, “screen the” for “screen a”
As a reminder, the % Inhibition is the change of the read-out against control, counted positive when it falls. In the case of `Nc1nc2c(nc(Br)n2[C@@H]2O[C@@H]3COP(=O)([O-])O[C@H]3[C@H]2O)c(=O)[nH]1.[Na+]` [8-Bromoguanosine 3′,5′-cyclic monophosphate sodium salt], the “% Inhibition” value is 71%. Take `NC(N)=NCCC[C@H](N)C(=O)C[C@@H](Cc1ccc(O)cc1)C(=O)O.NC(N)=NCCC[C@H](N)C(=O)C[C@@H](Cc1ccc(O)cc1)C(=O)O.O=S(=O)(O)O` [Arphamenine B Hemisulfate Salt: Hydrate]: the “% Inhibition” value amounted to 69.7%.

Turning to `Cn1cnc([N+](=O)[O-])c1Sc1ncnc2nc[nH]c12` [Azathioprine], the “% Inhibition” value is listed as 74.5%. The same measure, in the same setting: with L-Canavanine Free Base the figure was 73%. Same read-out and setting: with `Cc1ccc(S(=O)(=O)N[C@@H](CCC(N)=O)C(=O)OC(C)C)cc1` [N-(P-Tosyl)-L-Glutamine Isopropyl Ester] the figure was 80.6%; with `NCc1ccc(Cl)cc1Cl` [2,4-Dichlorobenzylamine], 85%; with `Cc1nnc(SCC2=C(C(=O)O)N3C(=O)[C@@H](NC(=O)Cn4cnnn4)[C@H]3SC2)s1` [Cefazolin sodium], 70%. Still for that read-out and setting: the same measure for `O=c1ncnc2n([C@H]3O[C@@H](CO)[C@H](O)[C@@H]3O)[nH]cc1-2` (stereo in doubt) [Allopurinol riboside]: 71.8%; for `COC1=C2CC[C@@H]3[C@H](CC[C@]4(C)C(=O)CC[C@@H]34)[C@@]2(C)CCC1=O` [4-Androsten-4-ol-3,17-dione 4-methyl ether]: 65.3%. Take `CO[C@@H]1O[C@H](CO)[C@H](O)[C@H](O[C@@H]2O[C@H](CO)[C@@H](O)[C@H](O)[C@H]2NC(C)=O)[C@H]1O` [Methyl 3-O-(2-Acetamido-2-Deoxy-B-D-Glucopyranosyl)-B-D-Galactopyranoside]: the “% Inhibition” value is given as 70%. Still for that read-out and setting: the same measure for `Nc1ccc(S(=O)(=O)Nc2ncccn2)cc1` [Sulfadiaine Free Acid]: 80%; for `NCCCCCCNS(=O)(=O)c1cccc2ccccc12` [N-6-Aminohexyl-1-Naphthalenesulfonamide]: 79.7%. Same read-out and setting: the same measure for `Cl.NC[C@@H]1O[C@H](C23CC4CC(CC(C4)C2)C3)Cc2c1ccc(O)c2O` [A-77636 hydrochloride]: 64%; for “Cytosine beta-D-arabinofuranoside Hydrochloride”: 81%.

The subject of a further experiment is ARN127(65)CFP/YFP. Nature of the experiment: Secondary screen using the AR FRET assay. It is filed as cell-based, human.
Conditions: not given
As to the method:
as §1, with “Compounds were aliquoted in 96-well plates (Costar™ 3603) at a concentration at which most of the compounds are active, but are not toxic to the cells (e.g., of 4 μg/ml).” left out, “protein).” for “protein). Last, each plate also contained wells treated with Y-27632 (50 μM) as a positive control.”
Selected candidate compounds from the primary screen of all three libraries were assayed again in a secondary screen using the AR FRET assay.
Finally, the role of F-actin in preventing polyglutamine aggregation was investigated by treating cells with two agents that prevent actin depolymerization: phalloidin and jasplakinolide.
Turning to “(2-hydroxyethyl) trimethylammonium chloride carbamate [Carbachol]”, the “Max % Inhibition” value was found to be 20%.

Still in this experiment, the particulars now being: agents that prevent actin depolymerization, Table 5.
Turning to Phalloidin, the “Max % Inhibition” value turned out to be 35%. On the same count and under the same terms, with `C/C1=C\[C@H](C)C[C@H](C)OC(=O)C[C@H](c2ccc(O)cc2)NC(=O)[C@@H](Cc2c(Br)[nH]c3ccccc23)N(C)C(=O)[C@H](C)NC(=O)[C@@H](C)C1` [Jasplakinolide] the figure was 30%.

Staying with this experiment, now noted: secondary screen, AR FRET assay, Table 3.
Regarding `CCOC(=O)Nc1c[n+](N2CCOCC2)no1` [Molsidomine, N-(Ethoxycarbonyl)-3-(4-morpholino)sydnone imine], the “Max % Inhibition” value turned out to be 20%. With `CCCCC/C=C\C/C=C\C/C=C\C/C=C\CCCC(=O)O` [Arachidonic acid, cis,cis,cis,cis-5,8,11,14-Eicosatetraenoic aci], the “Max % Inhibition” value is reported as 19%. On to `CC(C)(C)NCC(O)COc1cccc2c1CC(O)C(O)C2` (centres unmarked) [Nadolol], for which the “Max % Inhibition” value is given as 19%.

Turning to `CNCCc1ccccn1.Cl.Cl` [Betahistine hydrochloride, N-methyl-N-(2-pyridin-2-ylethyl)amine dihydrochloride], the “Max % Inhibition” value is given as 19%.

For the molecule `Cc1cc(-c2ccccc2)nnc1NCCN1CCOCC1` [Minaprine HCl, N-(4-Methyl-6-phenyl-3-pyridazinyl)-4-morpholineethanamin], the “Max % Inhibition” value is 18%. `NS(=O)(=O)c1cc2c(cc1Cl)N=CNS2(=O)=O` [Chlorothiazide, 6-Chloro-2H-1,2,4-benzothiadiazine-7-sulfonamide 1,1-dioxide]: the “Max % Inhibition” value was determined as 19%. Still for that read-out and setting: the same measure for `COc1cc(C)c(C(=O)Oc2cc(C)c(C(=O)O)c(O)c2C)c(OC)c1C` [Diffractic acid, 4-[(2,4-dimethoxy-3,6-dimethylbenzoyl)-oxy]-2-hydroxy-3,6-dimethylbenzoic acid]: 20%; for “DL-alanine,2,4-chlorophenyl-1,1-dimethylethyl ester [Alaproclate]”: 17%. As for `O=C1CC(c2ccc(O)cc2)Oc2cc(O)cc(O)c21` (racemic) [Naringenin, (±)-2,3-Dihydro-5,7-dihydroxy-2-(4-hydroxyphenyl)-4H-1-benzopyran-4-one], the “Max % Inhibition” value is on record as 19%. Still for that read-out and setting: with `COc1ccc2c(c1OC)C(=O)O[C@H]2[C@@H]1c2cc3c(cc2CCN1C)OCO3` [1S,9R-beta hydrastine, 1S,9R-(+)-beta hydrastine] the figure was 18%; with “N,N-bis(4-aminobutyl)amine [Spermidine HCl]”, 19%. The same measure, in the same setting: with `CC1=CC(=O)C2=C(C)CCC3[C@H](C)C(=O)O[C@@H]3[C@H]12` (stereo partly drawn) [Leucodin, (3S,9aR,9bS)-3,6,9-trimethyl-3,3a,4,5,9a,9b-hexahydroazuleno-[4,5-b]furan-2,7-dione] the figure was 23%; with `O=C(O)c1ccccc1OP(=O)(O)O` [Fosfosal, 2-phosphonooxybenzoic acid], 23%. For `COc1ccc([C@@H]2Sc3ccccc3N(CCN(C)C)C(=O)[C@@H]2OC(C)=O)cc1.Cl` (relative stereo) [Diltiazem HCl, (2S,3S)-(+)-cis-3-Acetoxy-5-(2-dimethylaminoethyl)-2,3-dihydro-2-(4-methoxyphenyl)-1,5-benzothiazepin-4(5H)-one hydrochloride], the “Max % Inhibition” value worked out at 22%.

The target of the next experiment is T1, htt(72)CFP/YFP (Homo sapiens, UniProt P42858, INS38QQQQQQQQQQQQQQQQQQQQQQQQQQQQQQQQQQQQQQQQQQQQQQQQQQQ).
T1 construct: htt exon 1 fragment derived from plasmid qp72; expressed in transfected cells; host or cells: HEK293
T1 sequence (P42858 with tags, fused parts or gaps, stated change not applied): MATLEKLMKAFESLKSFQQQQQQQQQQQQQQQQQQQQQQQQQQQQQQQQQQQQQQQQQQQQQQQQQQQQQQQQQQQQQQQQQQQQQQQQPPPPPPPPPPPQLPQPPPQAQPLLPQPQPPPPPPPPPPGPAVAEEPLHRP
The experiment is described as follows: FRET based assay of htt aggregation. It counts as cell-based. Conditions: HEK293, htt(72)CFP/YFP, 24 hours. The method, then:
Aggregation of htt was monitored using the FPR FRET based HTS described herein for assaying aggregation of AR, using plasmids with htt exon 1-CFP and -YFP fusions containing 72 repeats (htt(72)CFP/YFP). HEK293 cells were transfected with htt(72)CFP/YFP as above, and cells were plated into a 96-well dish in the presence or absence of various concentrations of test compounds. After 24 hours, cells were fixed in 4% paraformaldehyde, and FRET signal was determined from the cell monolayers by reading on the FPR.
As to `COc1cc2ncnc(Nc3ccc(F)c(Cl)c3)c2cc1OCCCN1CCOCC1` [Iressa, (3-Chloro-4-fluoro-phenyl)-[7-methoxy-6-(3-morpholin-4-yl-propoxy)-quinazolin-4-yl]-amine], the “Max % Inh. in Htt” value was found to be 20%.

Source of the values: patent US7803559B1, “Protein aggregation regulators” (The Regents of the University of CA, priority 2003, dated 2010).
